Data from patent publication US20200069629A1, “PHEROMONE COMPOSITIONS AND USES THEREOF” (CEVA SANTE ANIMALE, priority 2015, published 2020).

Experiment: Stability test of Formula A, contents by gas chromatography
Type: physicochemical
Conditions: in Formula A; for Content T3 months (25/60) / Content T3 months (40/75): 3 months; for Content T3 months (25/60) / Content T7 months (25/60): 25° C. and 60% RH; for Content T3 months (40/75): 40° C. and 75% RH; for Content T7 months (25/60): 7 months; for Content T0 month: white glass flask
Method: Detection and measures of the valeric acid, ethyl lactate and linoleic acid were made by using Gas chromatography (GC). Approximately 490 mg of linoleic acid, 53 mg of valeric acid and 78 mg of ethyl lactate accurately weighed are introduced into a 50 ml volumetric flask. This is completed to volume with ethyl acetate. […] A dilution 1/20 is made and completed to volume with ethyl acetate and the solution is stirred to homogenize. Approximately 2.5 g of Formula tested is introduced into a 20 ml volumetric flask. This is completed to volume with ethyl acetate. […] The solution is limpid. Gas chromatography equipped with a Capillary Column HP-FFAP 25 m×320 μm and a FID detector at 250° C. 1 μl of the solution is injected in the inlet (250° C.) and eluted through the column with Helium at constant flow (3 ml/min). Valeric acid (≈5.2 min), linoleic acid (≈13.5 min) and ethyl lactate (≈2.7 min) are quantified and contents thereof (% w/w) are given by the ratio of the areas of the peak corresponding to valeric acid, linoleic acid or ethyl lactate in the chromatogram obtained with the sample preparation and the standard solution.

| Content T3 months (25/60) | Content T3 months (40/75) | Content T7 months (25/60) | Content T0 month | Compound |
| --- | --- | --- | --- | --- |
| 0.060 % w/w | 0.059 % w/w | 0.059 % w/w | 0.0625 % w/w | CCOC(=O)C(C)O (stereo not drawn) [Ethyl lactate] |
| 0.386 % w/w | 0.364 % w/w | 0.398 % w/w | 0.395 % w/w | CCCCC/C=C\C/C=C\CCCCCCCC(=O)O [Linoleic acid] |
| 0.039 % w/w | 0.038 % w/w | 0.039 % w/w | 0.0425 % w/w | CCCCC(=O)O [Valeric acid] |
